Experiment: Conformational equilibrium of cyclic and open chain forms in aqueous solution
Assay type: physicochemical
Settings: at equilibrium at pH 7.0
From the text: The open, active, inhibitory chain species is favored at low pH while the cyclized structure is favored at neutral pH. The reaction is fully reversible: the open chain becomes predominant at low pH. The open chain to cyclic species reaction involves a trans to cis isomerization of the proline and the formation of a new N—B bond. […] Cyclization liberates one equivalent of H+ thereby explaining the requirement for base in the cyclization reaction and acid in the opening reaction. […] G. Gutheil and W. W. Bachovchin, Separation of L-Pro-DL-boroPro into Its Component Diastereomers and Kinetic Analysis of Their Inhibition of Dipeptidyl Peptidase IV. A New Method for the Analysis of Slow, Tight-Binding Inhibition, Biochemistry 32, 8723-8731 (1993)).

SMILES | fraction existing as the open chain, inhibitory species
O=C(C1CCCN1)N1CCCC1B(O)O (centres unmarked) [Pro-boroPro] | less than 1%
CC(C)C(N)C(=O)N1CCCC1B(O)O (centres unmarked) [Val-boroPro] | less than 0.1%

Source: patent publication US7265118B2, “Regulation of substrate activity” (Point Therapeutics, Inc., priority 1998, dated 2007)
